Assay results from patent publication US11054422B2, “Circulating astrocytes and MFSD2A as biomarkers” (priority 2017, dated 2021).

Tests used:
α7 nAChR = molecular target: T1, α7 nAChR (Mus musculus, UniProt P49582); assay: Memantine effect on E. coli K1 (E44)-induced cAstr/cBMEC shedding in neonatal mice; format: in vivo; conditions: neonatal (10 day-old) mice intraperitoneally injected with E44 and treated with MEM, P<0.001
T1 construct: endogenous in cells; host or cells: live neonatal (10 day-old) mice, in vivo; C57BL/6J is the strain stated for the animal experiments in general
Description: (§1) Then the suspensions were collected and centrifuged.
As α7 nAChR plays an important role in CNS Inflammation induced by microbial and non-microbial factors, we have proposed that turnover and shedding of astrocytes and BMECs could be regulated by α7 nAChR. To test this hypothesis, the correlation of α7 nAChR with cAstr/cBMEC shedding and CNS inflammation induced by meningitic E. coli K1 (E44) was examined an α7 nAChR antagonist memantine (MEM) described in the experimental methods herein. In this study, neonatal (10 day-old) mice were intraperitoneally injected with E44 and treated with MEM.

cAstr and cBMECs = assay: cAstr and cBMEC density in peripheral blood of mice treated with gp120 and METH; format: in vivo, mouse; conditions: vs controls without treatment (CON)
Description: as §1

BBB = assay: Blood cell biomarkers, serum markers and BBB extravasation in mice treated with nicotine, METH and gp120; conditions: for Evans blue and albumin extravasation into the brain / blood levels of CD133+/CD146+ endothelial PCs (EPCs) / blood levels of circulating Astrocytes (cAstr) / blood levels of circulating BMECs (cBMECs), CD146+/S100B+: treated mice
Experimental: Nicotine tartrate (NT) and methamphetamine (METH) were purchased from Sigma-Aldrich (St. Louis, Mo.). Dynabeads® M-450 Tosylactivated was obtained from Invitrogen (Carlsbad, Calif.) and utilized for magnetic bead extraction. Ulexeuropaeus 1 (UEA I) lectin and mounting medium with 4′,6-diamidino-2-phenylindole (DAPI) were purchased from Vector (Buringame, Calif.). HIV-1 gp120 was purchased from Immunodiagnostics (Woburn, Mass.). Serum levels of molecular markers were determined by ELISA using antibodies and antigens from Creative Biomart (New York, N.Y.) (S100B) and ProteinTech (Chicago, Ill.) (ubiquitin C-terminal hydrolase 1, UCHL1). The Mfsd 2a antibody was purchased from Santa Cruz Biotechnology, Inc. (Dallas, TEXAS). All primary antibodies (Ab) were purchased from the commercial sources: a rabbit anti-α7 nAChR Ab from Genescript (Piscataway, N.J.); a rat anti-mouse Ly-6G (Gr-I) Ab; a mouse anti-CD44 Ab (sc-7297), a rabbit anti-actin (sc-7210), and a rabbit anti-GLUT1 Ab from Santa Cruz Biotechnology (Santa Cruz, Calif.); a rat anti-mouse Ly-6G (Gr-I) Ab FITC-conjugated and an anti-mouse CD146 Ab FITC-conjugated from eBiosciences (San Diego, Calif.), a rabbit anti-SIOOB Ab rhodamine-conjugated from BD Biosciences, and a rabbit anti-CD133 Ab rhodamine-conjugated from Abbiotec (San Diego, Calif.). Transwell filters (3 μm pore size, 6.5 mm diameter), blood plates and CBA assay kit were purchased from BD Biosciences (San Jose, Calif.). Chemicals were purchased from Sigma-Aldrich (St. Louis, Mo.) unless otherwise noted.
Mouse cBMECs were isolated with UIexeuropaeus 1 (UEA 1) lectin-coated Dynabeads as known by one of ordinary skill in the art. The beads were prepared according to the manufacturer's instructions (Invitrogen) and re-suspended in Hanks' balanced salt solution (HBSS. Invitrogen Corp., Carlsbad, Calif., USA) plus 5% fetal calf serum (HBSS+5% FCS) to a final concentration of 4×10^8 beads/mi. Mouse cBMECs in whole blood were affinity captured at 4TC with UEA UEA-1 coated Dynabeads. To eliminate non-specific cell binding to the beads, the cell suspensions were flushed through the pipette tip during the washing steps and then suspended in PBS by using a magnetic particle concentrator (MPC). The bound cells were incubated with 0.5M fucose for 10 min at room temperature to release the beads from target cells. The beads were then washed 5 times with HBSS+5% FBS and collected with the MPC. Then the suspensions were collected and centrifuged. The pellet was collected and affinity captured at 4-C with Msd2a-precoated Dynabeads. After blocking and washing, the cells conjugated to the beads were fixed with 2% paraformaldehyde and 0.25% glutaradehyde for 30 minutes. Then the FITC-conjugated CD146 antibody (BMECs specific marker, used for cBMEC identification) was added and incubated with the beads-bound cells overnight (dark). At last, DAPI was added and incubated with the beads-bound cells for 30 min. The cells (10 ul) were transferred to the cell counter, and counted under a florescence microscope.
Mouse astrocytes were isolated with Concanavalin A (ConA)-coated magnetic beads as known by one of ordinary skill in the art. Dynabeads™ beads were prepared according to the manufacturer's instructions (Invitrogen) and re-suspended in Hanks' balanced salt solution (HBSS, Invitrogen Corp., Carlsbad, Calif., USA) plus 5% fetal calf serum (HBSS+5% FCS) to a final concentration of 4×10^8 beads/ml. Mouse astrocytes in whole blood were affinity captured at 4° C. with ConA coated Dynabeads™. To eliminate non-specific cell binding to the beads, the cell suspensions were flushed through the pipette tip during the washing steps and then suspended in PBS by using a magnetic particle concentrator (MPC). The bound cells were incubated with 0.5M fucose for 10 min at room temperature to release the beads from target cells. The beads were then washed 5 times with HBSS+5% FBS and collected with the MPC. Then the suspensions were collected and centrifuged. […]

T1 sequence (P49582 23-502): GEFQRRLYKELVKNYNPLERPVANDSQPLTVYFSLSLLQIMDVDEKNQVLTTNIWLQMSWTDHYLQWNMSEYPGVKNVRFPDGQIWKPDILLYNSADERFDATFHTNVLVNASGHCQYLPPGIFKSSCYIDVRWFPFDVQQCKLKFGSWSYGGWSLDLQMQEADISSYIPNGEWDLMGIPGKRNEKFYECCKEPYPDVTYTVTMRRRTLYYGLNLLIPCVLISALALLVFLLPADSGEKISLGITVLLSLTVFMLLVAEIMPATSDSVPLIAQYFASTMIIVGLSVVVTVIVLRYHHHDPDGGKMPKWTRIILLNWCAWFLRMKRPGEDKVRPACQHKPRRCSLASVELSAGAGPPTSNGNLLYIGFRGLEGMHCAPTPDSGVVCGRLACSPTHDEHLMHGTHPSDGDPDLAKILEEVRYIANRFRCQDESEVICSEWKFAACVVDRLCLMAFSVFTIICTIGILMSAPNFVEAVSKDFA

| SMILES | shedding of cAstr (blood level) (α7 nAChR) | shedding of cBMECs (blood level) (α7 nAChR) | shedding of cAstr (blood level) (α7 nAChR; listed as memantine) | shedding of cBMECs (blood level) (α7 nAChR; listed as memantine) | Astr (cAstr) shedding (cAstr and cBMECs; FIG. 6A) | cBMEC shedding (cAstr and cBMECs; FIG. 6B) | Evans blue and albumin extravasation into the brain (BBB) | blood levels of CD133+/CD146+ endothelial PCs (EPCs) (BBB) | blood levels of circulating Astrocytes (cAstr) (BBB) | blood levels of circulating BMECs (cBMECs), CD146+/S100B+ (BBB) | serum levels of S100B (BBB; mice, ELISA) | serum levels of ubiquitin C-terminal hydrolase 1 (BBB; mice, ELISA) |
| --- | --- | --- | --- | --- | --- | --- | --- | --- | --- | --- | --- | --- |
| CC12CC3CC(C)(C1)CC(N)(C3)C2 [MEM, memantine] | significantly block | significantly block | reduce | reduce |  |  |  |  |  |  |  |  |
| CN[C@@H](C)Cc1ccccc1 [METH, methamphetamine] |  |  |  |  | significantly induce | significantly induce | enhanced | increased blood levels | increased blood levels | increased blood levels |  |  |
| CN1CCCC1c1cccnc1.O=C(O)C(O)C(O)C(=O)O (stereo not shown) [nicotine, Nicotine tartrate] |  |  |  |  |  |  | enhanced | increased blood levels | increased blood levels | increased blood levels | significantly increase | significantly increase |
